Broadly, the inhibition is the drop in the measured response relative to a control, in per cent. The term Cmax denotes the peak of the concentration-time curve. A word on the Tmax: it is the time from dosing to the highest level. As a reminder, the half-life is the time in which the quantity being followed falls by half. In general, pIC50 refers to the negative decadic logarithm of the IC50, by convention in mol/L.

Structures are written as SMILES. pIC50: −log10 of the molar value. A value given as a limit tells only on which side of the number the result lay.

In one series the target is T1, LXRα (Homo sapiens, UniProt Q13133).
T1 construct: Eurofins (assay provider); host or cells: E. coli
T1 sequence (Q13133 1-447): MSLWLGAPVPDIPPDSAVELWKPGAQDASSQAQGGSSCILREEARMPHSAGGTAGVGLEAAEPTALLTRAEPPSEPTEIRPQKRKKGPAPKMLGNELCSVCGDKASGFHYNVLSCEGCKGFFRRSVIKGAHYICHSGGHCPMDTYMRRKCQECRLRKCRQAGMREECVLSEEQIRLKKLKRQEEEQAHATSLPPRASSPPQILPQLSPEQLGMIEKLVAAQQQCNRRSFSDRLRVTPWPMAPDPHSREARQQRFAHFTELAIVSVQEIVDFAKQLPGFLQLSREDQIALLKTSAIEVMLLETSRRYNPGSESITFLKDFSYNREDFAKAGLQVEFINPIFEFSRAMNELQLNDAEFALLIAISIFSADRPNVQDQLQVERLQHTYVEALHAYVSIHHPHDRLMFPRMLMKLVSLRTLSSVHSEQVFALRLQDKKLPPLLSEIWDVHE
The experiment in a line: LXRα radioligand binding inhibition. The following applies: [3H]T0901317 binding, recombinant protein; for % inhibition observed, LXRα: 10 µM; for inhibition at 10 µM: read-out: % inhibition observed, LXRα. How it is done: Four nuclear receptors: glucocorticoid, androgen, LXRα, and LXRβ were assayed. Inhibition of agonist binding to each of the receptors was carried out following a standard protocol by Eurofins, Inc., USA. Compounds were tested at 10 µM. Compound binding was measured by scintillation counting and was calculated as a % inhibition of the binding of a radioactively labeled ligand specific for each target. Percent inhibition of control specific binding was expressed as
100−[(measured specific binding)/(control specific binding)∗100]
where measured specific binding is the amount of radioactive ligand binding obtained in the presence of test compounds.
(iii) LXRα (human) recombinant protein expressed in E. coli; agonist radioligand 20 nM [^3H] […] (iv) LXRβ (human) recombinant protein expressed in E. coli; agonist radioligand 20 nM [^3H]

A short description of series [1]: in vivo pharmacokinetics in CD1 male mice. The note with it: for bioavailability: male, CD1, mouse, oral, 5 mg/kg, read-out: F (bioavailability); for Cmax / Tmax / half-life: mouse. How it is done:
Experiments were performed by Pharmaron, Inc. The metabolism and pharmacokinetics of the 6-azasteroids were studied in CD1 male mice approximately 8 weeks old and 20–30 g. […] Each group contained three mice. Blood samples were collected in anticoagulant tubes containing potassium ethylenediaminetetraacetic acid.
Four quality control samples (1, 2, 50, and 800 ng/mL) for plasma were prepared independently of those used for the calibration curves. These quality control samples were prepared on the day of analysis in the same way as the calibration standards. An aliquot (33 µL) of each standard, quality control sample, and unknown sample (30 µL of plasma combined with 3 µL of blank solution) was added to 200 µL of acetonitrile containing an internal standard mixture for precipitating protein. […] The supernatant was diluted three times with water. Diluted supernatant (5 µL) was quantitatively analyzed by LC-MS/MS (API 4000 Triple Quad—AB Sciex, Canada; LC-30A HPLC—Shimadzu, Japan). Non-compartmental pharmacokinetic analysis was performed with Phoenix WinNonlin software (ver. 6.1, Certara, US) using composite data.

The subject of series [2] is M. leprae. The experiment in a line: M. leprae viability in axenic medium by radiorespirometry. In kind it is cell-based, Mycobacterium leprae.
The test system of another series is HepG2 cells. The note with it: cited from earlier work.
The subject of another series is M. leprae 3β-HSD. Nature of the series: cholestenone production by M. leprae in axenic medium (TLC). The following applies: Mycobacterium leprae, TLC densitometry, σ printed in brackets. Type of series: cell-based.
The test system of series [3] is M. leprae. The experiment in a line: Shepard's mouse footpad model: bacilli count and molecular viability. The following applies: for M. leprae molecular viability, median (16S rRNA cDNA/DNA, RT-qPCR) / M. leprae molecular viability: Balb/c mice footpad; for M. leprae molecular viability, median (16S rRNA cDNA/DNA, RT-qPCR): 50 mg/kg daily alone, 1 month; for M. leprae molecular viability: 50 mg/kg daily in combination with sub-inhibitory rifampicin 1 mg/kg; for bacillary load in footpad, median: Balb/c mice, 50 mg/kg daily by gavage alone, 1 month (20 doses), vehicle median 8.110 × 10^4. Type of series: in vivo, Mycobacterium leprae. How it is done: Animal experimentation was conducted under approval by the ILSL ethical committee ([…] 02/19). Balb/c female mice with 8-week-old were inoculated with 5 × 10^3 live M. leprae bacilli, strain Thai-53, in both hind footpads, as previously described for the Shepard's model ([25]). Eight groups were tested in the experiment: (i) M. leprae control group (n = 5) inoculated with M. leprae and no additional treatment; (ii) vehicle control group (n = 4) inoculated with M. leprae and treatment with vehicle of the drugs; (iii) regular rifampicin treatment, 10 mg/Kg dose; […] (v) compound 2 treatment (n = 4), 50 mg/kg dose; […] One month after inoculation, mice from the control group were euthanized and the hind footpad was collected to assess the establishment of the infection by bacillary enumeration. At that time point, vehicle or drug treatment was started for the remaining groups. All compounds were administrated by gavage, rifampicin was administered weekly, and the compounds were administered daily (excluding weekends) for 1 month (20 doses). Mice were euthanized 6 h after administration of the last dose, and blood was collected in heparin-coated tubes by cardiac puncture for blood enzyme evaluation and compound 5 measurement by LC/MS in the plasma. The infected hind footpads from each group of mice were excised, homogenized and bacilli enumerated in a 100 μL aliquot as previously described ([26]). The remaining homogenate was centrifuged at 12,000 × g for 15 min, the supernatant was discarded, and the pellet was suspended in 750 μL of RNA later solution (Thermo Fisher Scientific). The homogenized tissue pellet was incubated at 4°C for 16 h and stored at -80°C until determination of M. leprae viability was performed by RT-qPCR ([27], [28]). […] RNA and DNA extractions were performed as previously described ([10], [27]). RNA samples were treated with the Turbo DNA-free kit (Thermo Fisher Scientific), and 1,000 ng of DNAse-treated RNA was then used to synthesize the cDNA using the GoScript kit (Promega, USA).
A general note: Quantitative PCR measures a nucleic acid by following its amplification.

[4] abbreviates: plasma, 5 mg/kg PO vs 1 mg/kg IV.

As for `CC(C)(C)c1ccc(C(C)(C)C)c(NC(=O)C2CCC3C4CNC5=CC(=O)CC[C@]5(C)C4CC[C@]23C)c1` (some centres unmarked) [Compound 1], on LXRα, the “% inhibition observed, LXRα” value is “significantly inhibit binding” and the inhibition at 10 µM was 53%. In series [1] (1 mg/kg IV), the AUCinf was found to be 356 ng·h/g and the “Clobs (observed clearance)” value is on record as 46.8 (mL/min)/kg. Also, in series [1] (5 mg/kg PO, plasma), the AUCinf came to 822.1 ng·h/g, the peak level (Cmax) was 501 ng/mL, the Tmax stood at 30 min and the half-life is 60 min. In series [1] (PO administration), the “time by which most of the compound was cleared from plasma” value is recorded as at most 4 h. Also, in series [1] (setting [4]), the bioavailability was 46.2%. In series [1] (plasma, 1 mg/kg IV), the concentration peaked (Cmax) at 803 ng/mL and the Tmax stood at 38.5 min.

`CCCN1CC2C3CCC(C(=O)Nc4cc(C(C)(C)C)ccc4C(C)(C)C)[C@@]3(C)CCC2[C@@]2(C)CCC(=O)C=C12` (some centres unmarked) [Compound 2]: the “effect on M. leprae viability (radiorespirometry)” value (shortened to “effect on M. leprae viability”) in the series with M. leprae [2] (40 µM) is “did not significantly affect M. leprae viability”. Besides, the “effect on M. leprae viability” value in the series with M. leprae [2] (100 µM) is listed as “drastically reduced M. leprae viability”. In the series with HepG2 cells, the negative logarithm of the IC50 (pIC50) is 4.68. Besides, the inhibition at 40 µM in the series with M. leprae 3β-HSD (40 μM) is around 38%. For the same compound, on LXRα, the “% inhibition observed, LXRα” value is recorded as “significantly inhibit binding” and the inhibition at 10 µM amounted to 64%. For the same compound, in the series on M. leprae [3], the “M. leprae molecular viability, median (16S rRNA cDNA/DNA, RT-qPCR)” value is on record as 0.5442%; the “M. leprae molecular viability” value is listed as “a reduction in bacterial viability was also observed”; the “bacillary load in footpad, median” value is 7.885 × 10^4.

Regarding `C[C@]12CCC3C(CNC4=CC(=O)CC[C@@]43C)C1CCC2C(=O)NC(c1ccc(F)cc1)c1ccc(F)cc1` (some centres unmarked) [Compound 5], the “effect on M. leprae viability” value with M. leprae [2] (100 µM) was “without significantly affecting bacterial viability”. In addition, the pIC50 in the series on HepG2 cells is 4.51. The same compound yielded an inhibition at 100 µM in the series with M. leprae 3β-HSD (100 μM) of around 25.1%. For the same compound, on LXRα, the “% inhibition observed, LXRα” value is listed as “low binding” and the inhibition at 10 µM came out at 11%. Further, in the series on M. leprae [3], the “M. leprae molecular viability, median (16S rRNA cDNA/DNA, RT-qPCR)” value is listed as 4.205%; the “M. leprae molecular viability” value is recorded as “a reduction in bacterial viability was also observed”; the “bacillary load in footpad, median” value is on record as 7.890 × 10^4. In series [1] (1 mg/kg IV), the AUCinf is 3,123 h·ng/g and the “Clobs (observed clearance)” value was 5.34 (mL/min)/kg. Besides, in series [1] (5 mg/kg PO vs 1 mg/kg IV), the “F (bioavailability)” value is 118.9%. Besides, in series [1] (5 mg/kg PO, plasma), the AUCinf is 18,566 h·ng/g, the Cmax amounted to 2210 ng/mL, the time to peak (Tmax) came to 30 min and the half-life is 168 min. For the same compound, in series [1] (PO administration), the “compound remaining in plasma after 6 h” value is recorded as “more than 50%”. Further, in series [1] (longer than compound 1), the “in vivo t1/2 relative to compound 1” value is reported as “approximately 2.5 fold”. For the same compound, in series [1] (setting [4]), the bioavailability was 119%. Further, in series [1] (plasma, 1 mg/kg IV), the maximum concentration (Cmax) came out at 838 ng/mL and the time of peak concentration (Tmax) came to 156 min.

These data come from publication PMC12210912, “Pharmacologic properties and inhibitory activity of 6-azasteroids against Mycobacterium leprae in vivo and in vitro” (Microbiology Spectrum, 2025).
